Measured values as given in patent publication US10975055B2, “Inhibitors of interleukin-1 receptor-associated kinases and uses thereof” (Dana-Farber Cancer Institute, Inc., priority 2016, dated 2021).
Where two headings read alike, the source gives them in different places.

Key:
IRAK4 = target: T1, IRAK4 (Homo sapiens, UniProt Q9NWZ3); assay: IRAK4 Z-lyte kinase assay (FRET peptide substrate); assay type: biochemical
T1 sequence (Q9NWZ3 1-460): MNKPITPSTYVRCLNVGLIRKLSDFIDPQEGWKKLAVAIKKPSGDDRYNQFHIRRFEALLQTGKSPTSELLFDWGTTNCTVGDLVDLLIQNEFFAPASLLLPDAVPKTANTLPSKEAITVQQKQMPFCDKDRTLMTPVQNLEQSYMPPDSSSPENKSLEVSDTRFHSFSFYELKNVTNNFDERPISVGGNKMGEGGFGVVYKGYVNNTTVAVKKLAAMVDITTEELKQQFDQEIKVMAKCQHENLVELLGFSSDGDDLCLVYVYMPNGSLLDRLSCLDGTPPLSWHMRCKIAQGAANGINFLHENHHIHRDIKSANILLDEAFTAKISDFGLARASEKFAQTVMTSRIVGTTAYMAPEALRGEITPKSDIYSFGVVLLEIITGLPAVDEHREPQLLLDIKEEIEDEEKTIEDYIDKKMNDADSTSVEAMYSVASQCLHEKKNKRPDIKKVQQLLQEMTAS
Method: (§1) Select compounds described herein were evaluated for structure-activity analyses. For IRAK1, the following Alexa kinase assay procedure was followed: in the absence of an inhibitor, ADP formed by a kinase reaction will displace an Alexa Fluor 647 dye-labeled ADP tracer from an Eu3+-labeled anti-ADP antibody, resulting in a decrease in the time-resolved fluorescence resonance energy transfer (TR-FRET) signal. In the presence of an inhibitor, the amount of ADP formed by the kinase reaction is reduced, and the resulting intact antibody-tracer interaction produces a high TR-FRET signal. For IRAK4, the following Z-lyte kinase assay procedure was followed: phosphorylation-dependent protease susceptibility of a double-labeled peptide substrate is detected using fluorescence resonance energy transfer (FRET).

IRAK1 = IRAK1 (Homo sapiens, UniProt P51617); assay: IRAK1 Alexa kinase assay (TR-FRET, ADP tracer); assay type: biochemical
Method: as §1

[1] = tested on: MYD88 mutated WM and ABC-DLBCL cells; assay: Synergism evaluation with Ibrutinib: tumor cell killing; assay type: cell-based; conditions: for Combination Index (CI): synergism evaluation with Ibrutinib
[2] = tested on: Waldenstrom's, DLBCL, and Burkitt Lymphoma cell lines; assay: Cellular data for covalent IRAK1 inhibitors: cell killing; assay type: cell-based
In vivo PK studies = conditions: dosed IV
[3] = tested on: WM patients' bone marrow LPCs; assay: Tumor cell killing in WM patients' bone marrow LPCs; assay type: cell-based, human; conditions: combination with BTK inhibitor Ibrutinib
NF-κB activation = NF-κB activation under combination with Ibrutinib; assay type: cell-based
[4] = tested on: kinome (off-targets YSK4 and MEK3); assay: Kinome selectivity (kinome tree); assay type: biochemical
[5] = tested on: MYD88 mutated WM and ABC DLBCL cells; assay: Antiproliferative effects, single agent; assay type: cell-based
IRAK1 cysteine 302 = IRAK1 cysteine 302 (Homo sapiens, UniProt P51617); assay: Mass spec labelling studies; assay type: binding
IRAK1 cysteine 302, sequence (P51617 whole entry): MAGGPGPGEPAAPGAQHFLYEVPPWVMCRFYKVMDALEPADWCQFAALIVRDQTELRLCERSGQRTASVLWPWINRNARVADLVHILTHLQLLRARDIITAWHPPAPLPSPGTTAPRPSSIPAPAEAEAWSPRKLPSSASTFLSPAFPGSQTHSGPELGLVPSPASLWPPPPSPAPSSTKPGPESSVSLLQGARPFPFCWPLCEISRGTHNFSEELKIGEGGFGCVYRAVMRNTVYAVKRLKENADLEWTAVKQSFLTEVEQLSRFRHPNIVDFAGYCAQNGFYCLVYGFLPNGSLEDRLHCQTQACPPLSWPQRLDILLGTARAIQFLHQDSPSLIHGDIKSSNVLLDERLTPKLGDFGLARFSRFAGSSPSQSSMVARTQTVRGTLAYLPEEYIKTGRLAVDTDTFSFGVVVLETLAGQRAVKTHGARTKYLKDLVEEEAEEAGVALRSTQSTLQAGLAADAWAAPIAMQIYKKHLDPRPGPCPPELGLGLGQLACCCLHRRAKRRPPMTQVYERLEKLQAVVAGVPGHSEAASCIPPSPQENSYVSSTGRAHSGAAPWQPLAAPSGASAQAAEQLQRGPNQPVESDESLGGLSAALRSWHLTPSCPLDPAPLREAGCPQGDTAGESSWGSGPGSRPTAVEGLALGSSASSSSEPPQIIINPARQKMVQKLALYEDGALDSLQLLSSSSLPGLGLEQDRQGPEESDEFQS

IRAK1, sequence (P51617 whole entry): as above

Compound | IC50 (IRAK4; Table 1, read-out: IC50 IRAK4) [nM] | IC50 (IRAK1; Table 1, read-out: IC50 IRAK1) [nM] | IC50 (IRAK4; read-out: IRAK4 IC50) [nM] | IC50 (IRAK1; read-out: IRAK1 IC50) [nM] | also measured
C=CC(=O)Nc1ccc(C(=O)Nc2ccc(NC(=O)c3cccc(-c4ccn[nH]4)n3)cc2)cc1 [JH-X-119-02] | > 10000 | 47 |  |  | 
C=CC(=O)Nc1cccc(C(=O)Nc2ccc(NC(=O)c3cccc(-c4cnoc4)n3)cc2)c1 [JH-XIII-80-1, N-(4-(3-acrylamidobenzamido)phenyl)-6-(isoxazol-4-yl)picolinamide] | > 10000 |  | > 10000 | 12 | 
C=CC(=O)Nc1cccc(-c2cn(-c3ccc(NC(=O)c4cccc(-c5ccn[nH]5)n4)cc3)nn2)c1 [JH-XIII-96-2, N-(4-(4-(3-acrylamidophenyl)-1H-1,2,3-triazol-1-yl)phenyl)-6-(1H-pyrazol-5-yl)picolinamide] | > 10000 |  | > 10000 | 40 | 
C=CC(=O)N[C@H]1CC[C@H](NC(=O)c2ccc(NC(=O)c3cccc(-c4ccn[nH]4)n3)cc2)CC1 [JH-XII-200-1, N-(4-(((1r,4r)-4-acrylamidocyclohexyl)carbamoyl)phenyl)-6-(1H-pyrazol-5-yl)picolinamide] |  |  | 154 | 46 | 
C=CC(=O)Nc1cccc(C(=O)Nc2cccc(NC(=O)c3cccc(-c4ccn[nH]4)n3)c2)c1 [JH-X-119-04] | > 10000 | 25 |  |  | 
C=CC(=O)NC12CC(NC(=O)c3ccc(NC(=O)c4cccc(-c5ccn[nH]5)n4)cc3)(C1)C2 [JH-XII-200-3, N-(4-((3-acrylamidobicyclo[1.1.1]pentan-1-yl)carbamoyl)phenyl)-6-(1H-pyrazol-5-yl)picolinamide] |  |  | 607 | 51 | 
CCC(=O)Nc1cccc(C(=O)Nc2ccc(NC(=O)c3cccc(-c4ccn[nH]4)n3)cc2)c1 [JH-X-159] | > 10000 | 259 |  |  | 
C=CC(=O)Nc1ccc(C(=O)Nc2cccc(NC(=O)c3cccc(-c4ccn[nH]4)n3)c2)cc1 [JH-X-119-03] |  | 55 |  |  | 
CN(C)C/C=C/C(=O)Nc1cccc(C(=O)Nc2ccc(NC(=O)c3cccc(-c4ccn[nH]4)n3)cc2)c1 [JH-X-198] | > 10000 | 51 |  |  | Combination Index (CI) [1]: < 1.0
C=CC(=O)Nc1cccc(C(=O)Nc2ccc(NC(=O)c3cccc(-c4cnn(C)c4)n3)cc2)c1 [JH-XIII-80-2, N-(4-(3-acrylamidobenzamido)phenyl)-6-(1-methyl-1H-pyrazol-4-yl)picolinamide] | > 10000 |  | > 10000 | 67 | 
C=CC(=O)Nc1cccc(C(=O)Nc2ccc(NC(=O)c3cccc(-c4cn[nH]c4)n3)cc2)c1 [JH-XIII-80-3, N-(4-(3-acrylamidobenzamido)phenyl)-6-(1H-pyrazol-4-yl)picolinamide] | > 10000 |  | > 10000 | 22 | 
C=CC(=O)N[C@H]1CCC[C@@H](NC(=O)c2ccc(NC(=O)c3cccc(-c4ccn[nH]4)n3)cc2)C1 [JH-XII-200-2, N-(4-(((1R,3S)-3-acrylamidocyclohexyl)carbamoyl)phenyl)-6-(1H-pyrazol-5-yl)picolinamide] |  |  | 648 | 24 | 
C=CC(=O)N[C@H]1CC[C@H](C(=O)Nc2ccc(NC(=O)c3cccc(-c4ccn[nH]4)n3)cc2)CC1 [JH-XII-205-1, N-(4-((1r,4r)-4-acrylamidocyclohexane-1-carboxamido)phenyl)-6-(1H-pyrazol-5-yl)picolinamide] |  |  | 1110 | 88 | 
C=CC(=O)N[C@H]1CCC[C@@H](C(=O)Nc2ccc(NC(=O)c3cccc(-c4ccn[nH]4)n3)cc2)C1 [JH-XII-205-2, N-(4-((1R,3S)-3-acrylamidocyclohexane-1-carboxamido)phenyl)-6-(1H-pyrazol-5-yl)picolinamide] | > 10000 |  | > 10000 | 72 | 
N-(4-(4-acrylamidobenzamido)phenyl)-[2,3′-bipyridine]-6-carboxamide [JH-XIII-77] | > 10000 |  | > 10000 | 80 | 
C=CC(=O)Nc1cccc(C(=O)Nc2ccc(NC(=O)c3cccc(-c4ccn[nH]4)n3)cc2)c1 [JH-X-119-01] | > 10000 |  |  | 9.3 | inhibition of IRAK4 (IRAK4; at concentrations up to 10 μM): no inhibition; cell killing ED50 [2]: micromolar; Cmax (In vivo PK studies): 9.95 µM; clearance (In vivo PK studies): 18.8 mL/min/kg; half-life (In vivo PK studies): 1.61 h; tumor cells killing in WM patients' bone marrow LPCs [3]: more robust tumor cells killing; NF-κB activation, combination with Ibrutinib (NF-κB activation): suppression; kinome selectivity: off-target inhibition [4]: only two kinases, YSK4 and MEK3; antiproliferative effects [5]: antiproliferative effects; tumor cell killing, combination with Ibrutinib ([1]; combination with Ibrutinib, MYD88 mutated WM and ABC-DLBCL cells): synergistic tumor cell killing; Combination Index (CI) [1]: < 1.0; labelling of IRAK1 (mass spec) (IRAK1 cysteine 302): irreversibly labelled IRAK1 at cysteine 302
